Data as given in a melting point compilation (Tetko et al.; mined from patent text by program, amines drawn as free bases though some values may be those of a salt).

| SMILES | melting point [°C] |
| --- | --- |
| COc1cc(OC)nc(NC(=O)NS(=O)(=O)Cc2ccccc2S(C)(=O)=O)n1 | 180 to 182 |
| CC(C)(C)C(=O)c1c[nH]c2ncc(-c3cccc(C#N)c3)nc12 | 248 to 249 |
| BrCCCCCCCc1ccc(OCc2ccccc2)cc1 | 32 to 34 |
| O=C1O[C@@H](c2ccc(F)cc2)[C@@H](Cc2ccc(C(F)(F)F)cc2)N1Cc1cccc2ccccc12 (racemic) | 136 to 137 |
| CCCc1c(OCCCCCCc2cc(OC)c(OC)c(C(C)C)c2)ccc(C(=O)O)c1O | 106 to 108 |
| CC(C)(C)c1n[nH]c(SCCNC(=O)Nc2ccc(C(F)(F)F)cc2)n1 | 238 to 240 |
| CCc1cccc(CC(=O)O)c1OCCCc1cn(-c2ccc(Br)cn2)nc1C(C)C | 152 |
| CN(C)CCN1C(=O)C(NC(=O)c2ccc(NS(C)(=O)=O)cc2)C(C)(C)SC1=S (centres undefined) | 158 to 159 |
| N#Cc1cnc2cc(/C=C/c3ccncc3)ccc2c1Nc1ccc(Cl)cc1Cl | 240 to 242 |
| CSc1cc(Cl)ccc1C(=O)CC#N | 139 to 141 |
| C#CCn1c(-c2ccc(OC)cc2)c([N+](=O)[O-])c2ccc(OC)cc2c1=O | 162 to 164 |
| CCOC(=O)c1cc(F)c(C2CNCC2NC(=O)OC(C)(C)C)cc1F (centres undefined) | 98 to 100 |
| COc1ccc(C(=O)[C@H]2C[C@H]2C(=O)O)cc1 (relative stereo) | 170 to 172 |
| CCn1c(=O)c2c(nc(/C=C/c3ccc4c(c3)OCO4)n2C)n(CC)c1=O | 219 to 220 |
| CCOC(=O)CCCC(=O)c1cn(-c2cccnc2)c2ccccc12 | 95 to 97 |
| CC(=O)OC1CCC2(C)C(=CCC3C2CCC2(C)C(C(C)=O)CCC32F)C1 (centres undefined) | 128 |
| CCN(CC)S(=O)(=O)c1cc(Cl)c(Cl)c(Cl)c1SCCl | 82 to 83 |
| COC(=O)C=Cc1ccc(Cl)c(Cl)c1 | 114 to 115 |
| Oc1cc(C(O)(c2ccccc2)c2ccccc2)c2ccccc2n1 | > 350 |
| Nc1ccc(-c2cnc3[nH]c(=O)n(CC4CCOCC4)c3n2)cn1 | > 260 |
| CCCNC(=O)N(CCC(=O)OC)CC1CC2c3cccc4[nH]cc(c34)CC2N(C)C1 (centres undefined) | 130 to 132 |
| O=C(O)CCCCCCCC(=O)CC(O)C(=O)C=Cc1ccccc1 (centres undefined) | 81.5 to 83 |
| CC(=O)Oc1ccc(Cn2ccnc2SC(C)=O)cc1F | 78 to 80 |

| SMILES | melting point [°C] |
| --- | --- |
| Cc1ccc(C)n1NC(=O)COc1ccc(C2=NNC(=O)NC2C)cc1Cl (centres undefined) | 189 to 190 |
| Cc1ccc(CC(=O)c2sccc2S(=O)(=O)Nc2onc(C)c2Br)cc1 | 146 to 150 |
| O=C(O)CCn1c(=O)c2ccccc2n(CCCN2CCC(OC(c3ccccc3)c3ccccc3)CC2)c1=O | 150 to 151 |
| Nc1nc(N)c(NC=O)c(Cl)n1 | > 300 |
| CN1C(C(=O)Nc2ccccn2)=C(OC(=O)C=Cc2ccccc2)c2ccccc2S1(=O)=O | 156 to 158 |
| CCOC(=O)c1oc2ccc(Cl)cc2c1O | 100 to 102 |
| ClC(Cl)(Cl)SNc1nc(C(Cl)(Cl)Cl)ns1 | 180 |
| CN(C)CCc1ccc(O)c2nc[nH]c12 | 245 to 252 |
| COCCn1cc2c(n1)c(N)nc1ccccc12 | 230 to 231 |
| O=C(Nc1ccc(Cl)nc1)c1ccc(-n2ccnc2)c(F)c1 | 210 to 211 |
| CC(=O)Nc1c(C(=O)Cc2ccccc2)[nH]c2cc(Cl)ccc12 | 258 to 259 |
| c1ccc2c(c1)NCCc1nccn1-2 | 119 to 122 |
| CC(C)(C)OC(=O)N1CCC[C@H](O)[C@@H]1c1ccc(Cl)cc1 (relative stereo) | 95 to 96 |
| Cn1cc(Br)cc(N)c1=O | 104 to 105 |
| CN(C)C(=O)Cc1ccc2[nH]cc(CCN3C(=O)c4ccccc4C3=O)c2c1 | 193 to 194 |
| CC1CN(S(=O)(=O)c2cccc(C(=O)O)c2)C(C)CN1S(=O)(=O)c1cccc(C(=O)O)c1 (centres undefined) | 223 to 227 |
| c1nc(Nc2ccc3[nH]ccc3c2)c2sc(-c3ccc(CNCCN4CCNCC4)cc3)cc2n1 | 178 to 191 |
| CCCCOc1ccccc1C1=NC(=O)C2=NC=NC2=N1 | 247 to 248 |
| COc1cc(C(=O)O)cc(C(F)(F)F)c1 | 131 to 135 |
| O=C(Nc1cccc(Cl)c1)ONC1=Nc2ccc(Cl)cc2C(c2ccccc2)=NC1 | 158 to 159 |
| CC(C)(C)c1cc(SC(=S)NN)cc(C(C)(C)C)c1O | 146 |
| CC(=O)Nc1ccccc1C(=O)NCCN1CCC(Nc2nc3ccccc3n2Cc2ccc(F)cc2)CC1 | 171 |
| COc1ccc(C=O)cc1OC1CC=CC1 | 60 to 62 |

| SMILES | melting point [°C] |
| --- | --- |
| Oc1onc(CCCc2cccc(OCc3ccccc3)c2)c1C(c1ccccc1)c1ccccc1 | 89 to 90.5 |
| O=C(O)c1ccc(CNC(=O)C2Cc3ccccc3N2S(=O)(=O)c2ccc(-c3ccc(F)cc3Cl)cc2)cc1 (centres undefined) | 111 to 124 |
| CC(C)C1(C)NC(c2nc3ccccc3cc2C=O)=NC1=O (centres undefined) | 226 to 227 |
| O=C(CC1CCOCC1)N[C@H]1CC[C@H](CCN2CCC(c3cccc4c3CCO4)CC2)CC1 | 191 |
| COc1cc(C)c(N)c(C)c1Cc1ccc(C(C)C)cc1 | 91 to 92 |
| O=c1c2ccccc2ncn1CCN1CCC(c2c[nH]c3ccccc23)CC1 | 90 |
| O=C(O)c1cn(C2CC2)c2nc(N3CCC(c4cccnc4)C3)c(F)cc2c1=O (centres undefined) | 226 to 228 |
| CC(=O)NC[C@H]1CN(c2ccc(N3CCS(=O)CC3)cc2)C(=O)O1 | 185 to 186 |
| CC(n1ncnn1)C(O)(c1ccc(Cl)cc1)c1ccc(C(F)(F)F)cc1 (centres undefined) | 123 to 125 |
| COC(=O)c1cc(C(=O)OC)cc(-c2ccccc2)c1 | 91 to 92 |
| Cc1ccccc1-c1c(Cl)nc2ccccc2c1Cl | 78 to 80 |
| Cc1[nH]c(=O)[nH]c1C(=O)C1CC1 | 272 to 273 |
| N#Cc1cnc2ccc(NC(=O)C#CCN3CCOCC3)cc2c1Nc1cccc(Br)c1 | 112 to 115 |
| Cc1ccc(Cl)c(OCC(O)CNCCNC(=O)NCCCO[N+](=O)[O-])c1 (centres undefined) | 109 to 111 |
| CCOC(=O)/C=C/c1ccc(C2COc3c(C)c(C)c(NC(=O)CC(C)(C)C)c(C)c32)cc1 (centres undefined) | 176 to 177 |
| CCCn1c(COCC)nc2c(N)nc3ccc(OCC(=O)N4CCOCC4)cc3c21 | 196 to 197 |
| CN(C(=O)Cc1ccccc1)c1nn(C)c(-c2ccc(F)cc2)c1-c1ccncc1 | 170 to 171 |
| CCCCC#CCCOc1c(I)cc(I)cc1I | 45 to 49 |
| Oc1ccc([C@@H]2CCc3cc(O)ccc3[C@@H]2Cn2ccnc2)cc1 (relative stereo) | 238 |
| CCOC(=O)c1cnn2c1c(=S)[nH]c1ccccc12 | 270 to 272 |
| O=S(=O)(c1ccc(F)cc1)N1CCCC1c1ccccc1F (racemic) | 108 |
| CCN(CC)C(C)CN1CCc2c(c(=O)oc3cc(C)c(Cl)cc23)C1 (centres undefined) | 78 to 80 |

Next, values leading:

| melting point [°C] | SMILES |
| --- | --- |
| 139 to 140 | O=C(O)c1ccccc1OCCN1CCC(c2cn(CCC3COCCO3)c3ccccc23)CC1 (centres undefined) |
| 40 to 42 | CCCCCCCCCC[C@@H]1C(=O)OC(C)=C[C@@H]1C(=O)OC |
| 134 to 135 | CON(C)C(=O)Cc1cc(Oc2ccc(C(F)(F)F)cc2Cl)ccc1[N+](=O)[O-] |
| 196 to 197 | CC(C)(C)OC(=O)NCc1cc(C(C)(C)C)cc(I)c1O |
| 160 | CCOc1ccc2c(c1)n(C1CCCCC1)c(=O)n2S(=O)(=O)c1ccc(C(=O)NC2Cc3ccccc3C2)cc1OC |
| 250 to 251 | N#CC(=NOS(=O)(=O)c1ccc(C(=O)O)cc1)c1ccccc1 |
| 124 to 125 | O=C(NCCCCl)Nc1c(Cl)cccc1C(=O)O |
| 144 to 145 | CCCN1C(=O)C2(c3ccccc3)CC(c3ccc(N)cc3)(C2)C1=O |
| 124 to 125 | O=C(NC1(C(=O)O)CC1)OCCOC(=O)C1CCCCC1 |
| > 230 | O=C(O)Cn1c(=O)c(=O)[nH]c2ccc3ccc(-n4ccc(CNC(=O)Nc5ccccc5)c4)cc3c21 |
| 146 to 147 | CN1CCC(C2(O)CC(c3ccc(F)cc3)c3ccc(F)cc32)CC1 (centres undefined) |
| 136 to 139 | COC(c1ccccc1)C1CCCCCC(=Cc2ccccc2)C1=O (centres undefined) |
| 70 to 72 | COC(=O)c1ccc(S(C)(=O)=O)c(C(=O)NC(C)(C)CO)c1Cl |
| 70 | CC(N)C(=O)NC(CCC(=O)NC(CC=CCC(=O)O)C(=O)O)C(=O)O (centres undefined) |
| 158 to 164 | O=C(O)CCC(=O)N1CCN2C(=O)OC(c3ccccc3)(c3ccccc3)C2C1 (centres undefined) |
| 133 to 136 | COc1cccc([C@H]2O[C@H](CC(=O)Nc3cc(CCC(=O)O)ccc3OC(C)C)C(=O)N(CC(C)(C)CO)c3ccc(Cl)cc32)c1OC |

| melting point [°C] | SMILES |
| --- | --- |
| 149 to 150 | Cn1c(=O)cc(CCO)c2ccccc21 |
| > 154 | CC(=O)Nc1cc(C(C)(C)C)c(SC2=C(O)CC(CCc3ccc(O)cc3)(C3CCCCC3)OC2=O)cc1C (centres undefined) |
| 129 to 131 | O=C(O)c1cn(-c2ccc(F)cc2)c(-c2ccc(N=Cc3ccc([N+](=O)[O-])o3)cc2)cc1=O |
| 139 to 140 | CC(=O)c1cc(N(C)C)ccc1NC(=O)c1ccc(OCc2ccccc2)cc1 |
| 287 to 290 | COc1cc(Cc2cnc(N)nc2N)cc2c(C)ccnc12 |
| 93 to 95 | c1ccc2c(c1)CCC(n1ccnc1)C2 (centres undefined) |
| 134 to 135 | COc1cc(CO)ccc1OCc1nc(-c2ccccc2)sc1C |
| 67 to 68 | COc1ccc(-c2cccs2)cc1OC1CCCC1 |
| 164 to 165 | CC(C)c1nc(CN2C(=O)C3(COc4cc5c(cc43)OCO5)c3c(-c4ccc(N(C)C)nc4)cccc32)cs1 (centres undefined) |
| 70 to 72 | OCCC1CCc2cc3ccccc3n2C1 (centres undefined) |
| 281 to 282 | N#Cc1c(Cl)c(F)cc2c(=O)c(C(=O)O)cn(C3CC3)c12 |
| 109 to 115 | COc1cc([N+](=O)[O-])c2ncccc2c1OCC(F)(F)F |
| > 350 | COc1cc(OC)c2c(=O)[nH]c(-c3ccc(N4CCC(=O)CC4)cc3)nc2n1 |
| 110 to 113 | CCCCCCCCCCCCCOc1ccc(CNc2ccc(C(=O)O)cc2)cc1 |
| 185 to 188 | O=C(O)CNS(=O)(=O)c1cc2ccc(Cl)cc2cc1Cl |
